What was measured:
Ets-1 = assay: gene expression with TPA induction, RT-PCR; type: cell-based; conditions: HepG2
Method: (§1) MMP and Ets-1, the expression of which is inhibited by menatetrenone, are known to be genes that are induced by 12-O-tetradecanoylphorbol-13-acetate (TPA) as well as uPA (urokinase plasminogen activator) and the like. In order to discover whether menatetrenone controls expression of genes activated by TPA, TPA was added to HepG2 cultured hepatic cancer cells at a concentration of 20 nM, menatetrenone was then added thereto, and RT-PCR and Western blot were performed to investigate whether expression of the aforementioned gene expression of which was induced by TPA was affected. […] On the other hand, the uPA receptor uPAR and the uPA inhibitor PAI were not affected.

MMP-1 [1] = assay: gene expression with TPA induction, RT-PCR; type: cell-based; conditions: HepG2
Method: as §1

MMP-3 [2] = assay: gene expression with TPA induction, RT-PCR; type: cell-based; conditions: HepG2
Method: as §1

MMP-7 [3] = assay: gene expression with TPA induction, RT-PCR; type: cell-based; conditions: HepG2
Method: as §1

[4] = system: uPA (urokinase plasminogen activator); assay: gene expression with TPA induction, RT-PCR; type: cell-based; conditions: HepG2
Method: as §1

uPA inhibitor PAI = assay: gene expression with TPA induction, RT-PCR; type: cell-based; conditions: HepG2; 20 nM of TPA alone
Method: as §1

uPA receptor uPAR = assay: gene expression with TPA induction, RT-PCR; type: cell-based; conditions: HepG2; 20 nM of TPA alone
Method: as §1

[5] = system: HLE hepatic cancer cell line; assay: cell proliferation by WST assay; type: cell-based; conditions: 10^−6 to 10^−4 M, 48 hours, vs control without menatetrenone
Method: (§2) Menatetrenone was added at concentrations of 0 M, 10^−6 M, 10^−5 M and 10^−4 M to HepG2, Huh7, Hep3B and HLE hepatic cancer cell lines, and cell proliferation was studied by WST assay after 48 hours.

[6] = system: Hep3B hepatic cancer cell line; assay: cell proliferation by WST assay; type: cell-based; conditions: 10^−6 to 10^−4 M, 48 hours, vs control without menatetrenone
Method: as §2

[7] = system: HepG2 hepatic cancer cell line; assay: cell proliferation by WST assay; type: cell-based; conditions: 10^−6 to 10^−4 M, 48 hours, vs control without menatetrenone
Method: as §2

[8] = system: Huh7 hepatic cancer cell line; assay: cell proliferation by WST assay; type: cell-based; conditions: 10^−6 to 10^−4 M, 48 hours, vs control without menatetrenone
Method: as §2

p21 = assay: CDK inhibitor expression by RT-PCR and Western blot in hepatic cancer cells; type: cell-based; conditions: 10^−6 to 10^−4 M
Method: (§3) To investigate the mechanism of inhibition of cell proliferation, genes involved in promoting the cell cycle were focused on, and changes caused by addition of menatetrenone in the amount of expression of CDK inhibitors p21, p27 and p16 which inhibit cyclin dependent kinase (CDK), an enzyme which promotes the cell cycle, were analyzed by the RT-PCR and Western blot methods. In this test, menatetrenone was added at concentrations of 0 M, 10^−6 M, 10^−5 M and 10^−4 M to HepG2, Huh7, Hep3B and HLE hepatic cancer cell lines, RNA was collected after 48 hours, and 1 μg of total RNA was subjected to RT-PCR to investigate expression of p21, p27 and p16. RT-PCR was performed on GAPDH (glyceraldehyde 3-phosphate dehydrogenase) as a control. In this test, menatetrenone was added at concentrations of 0 M, 10^−6 M, 10^−5 M and 10^−4 M to HepG2, Huh7, Hep3B and HLE hepatic cancer cell lines, proteins were extracted from the various cells, subjected to SDS-PAGE electrophoresis, blotted on PVP membranes and then incubated with p21 and p27 antibodies, and p21 and p27 protein expression was investigated by ECL.

p27 = assay: as above; type: cell-based; conditions: 10^−6 to 10^−4 M
Method: as §3

p16 = assay: CDK inhibitor expression by RT-PCR in hepatic cancer cells; type: cell-based; conditions: 10^−6 to 10^−4 M
Method: as §3, with “control.” for “control. In this test, menatetrenone was added at concentrations of 0 M, 10^−6 M, 10^−5 M and 10^−4 M to HepG2, Huh7, Hep3B and HLE hepatic cancer cell lines, proteins were extracted from the various cells, subjected to SDS-PAGE electrophoresis, blotted on PVP membranes and then incubated with p21 and p27 antibodies, and p21 and p27 protein expression was investigated by ECL.”

HLE hepatic cancer cells = assay: cell cycle analysis by flow cytometry (FACS); type: cell-based; conditions: 10^−6 to 10^−4 M, 48 hours
Method: (§4) To investigate the effects of menatetrenone on the cell cycles of cancer cells, distributions according to DNA amount in hepatic cancer cells to which menatetrenone had been added were analyzed by flow cytometry (FACS). In this test, menatetrenone was added at concentrations of 0 M, 10^−6 M, 10^−5 M and 10^−4 m to HepG2, Huh7, Hep3B and HLE hepatic cancer cells, and changes in the cell cycles were observed by FACS 48 hours later.

[9] = system: Hep3B hepatic cancer cells; assay: cell cycle analysis by flow cytometry (FACS); type: cell-based; conditions: 10^−6 to 10^−4 M, 48 hours
Method: as §4

[10] = system: HepG2 hepatic cancer cells; assay: cell cycle analysis by flow cytometry (FACS); type: cell-based; conditions: 10^−6 to 10^−4 M, 48 hours
Method: as §4

[11] = system: Huh7 hepatic cancer cells; assay: cell cycle analysis by flow cytometry (FACS); type: cell-based; conditions: 10^−6 to 10^−4 M, 48 hours
Method: as §4

[12] = system: hepatic cancer cells (HepG2); assay: Matrigel invasion test (double chamber); type: cell-based; conditions: 10^−6 to 10^−4 M, 24 hours, NIH3T3 feeder
Method: To investigate the effect of menatetrenone in inhibiting invasion and metastasis of cancer cells, menatetrenone was added to hepatic cancer cells (HepG2) at concentrations of 0 M, 10^−6 M, 10^−5 M and 10^−4 M, and ability of the cancer cells to invade Matrigel was measured. In this test, cancer cells were spread on Matrigel which had been coated on the upper chamber of a double chamber, menatetrenone was added thereto. NIH3T3 cells were spread on the lower chamber as a feeder. The number of cells that had passed through the Matrigel and migrated to the bottom of the upper chamber after 24 hours was observed microscopically.

GAPDH = assay: RT-PCR of invasion-related factors in hepatic cancer cells; type: cell-based; conditions: hepatic cancer cells (HepG2, Hep3B, Huh7)
Method: (§5) Test was performed by RT-PCR to investigate MMP expression. This test was to investigate expression of various MMPs (MMP-1, MMP-2, MMP-3, MMP-7, MMP-9 and MMP-14 (MT1-MMP)) and of transcription factor Ets-1 that affect MMP expression and the extracellular matrix receptor β1 integrin when menatetrenone was added to various hepatic cancer cells (HepG2, Hep3B, Huh7).

MMP-14 (MT1-MMP) = assay: as above; type: cell-based; conditions: hepatic cancer cells (HepG2, Hep3B, Huh7)
Method: as §5

MMP-1 [13] = assay: as above; type: cell-based; conditions: hepatic cancer cells (HepG2, Hep3B, Huh7)
Method: as §5

MMP-3 [14] = assay: as above; type: cell-based; conditions: hepatic cancer cells (HepG2, Hep3B, Huh7)
Method: as §5

MMP-7 [15] = assay: as above; type: cell-based; conditions: hepatic cancer cells (HepG2, Hep3B, Huh7)
Method: as §5

[16] = system: transcription factor Ets-1; assay: as above; type: cell-based; conditions: hepatic cancer cells (HepG2, Hep3B, Huh7)
Method: as §5

β1 integrin = assay: as above; type: cell-based; conditions: hepatic cancer cells (HepG2, Hep3B, Huh7)
Method: as §5

MMP-1 [17] = assay: Western blot of MMP protein expression in hepatic cancer cells; type: cell-based; conditions: hepatic cancer cells (HepG2, Hep3B, Huh7)
Method: (§6) Testing was performed by Western blot to investigate MMP expression. In this test protein expressions of MMP-1 and MMP-3 were investigated when menatetrenone was added to various hepatic cancer cells (HepG2, Hep3B, Huh7).

MMP-3 [18] = assay: as above; type: cell-based; conditions: hepatic cancer cells (HepG2, Hep3B, Huh7)
Method: as §6

AP-1 = assay: gel shift assay of transcription factor binding activity; type: cell-based; conditions: HepG2 nuclear proteins after 24 hours; 32P-labeled DNA probe
Method: (§7) MMP have binding sites for transcription factors AP-1, Ets-1, Tcf/Lef and the like at common to their promoter regions and which are known to regulate MMP expression. Gel shift assay was performed to investigate whether the binding activity of transcription factors AP-1 and Tcf/Lef, which regulate MMP expression, is affected by addition of menatetrenone. In this test menatetrenone was added to HepG2 hepatic cancer cells, nuclear proteins were extracted after 24 hours and reacted with double-stranded DNA having binding sites for AP-1 and Tcf/Lef labeled with ^32P, and gel shift assay was performed. […] Reduction and shifting of the band was also seen with anti-c-fos antibodies (“S” in the Figure).

Tcf/Lef = assay: as above; type: cell-based; conditions: HepG2 nuclear proteins after 24 hours; 32P-labeled DNA probe
Method: as §7

MMP-1 promoter = assay: MMP gene promoter activity test (luciferase reporter); type: cell-based; conditions: Huh7 cells, 48 hours
Method: (§8) Next, promoter reporter genes for MMP-1, MMP-3 and MMP-7 were introduced into Huh7 hepatic cancer cells, and the effect of menatetrenone on the activity of these MMP promoters was investigated. The MMP-1, MMP-3 and MMP-7 promoter-luciferase reporter plasmids used were prepared by replacing the reporter gene part of the MMP promoter-CAT reporter plasmid reported in Ozaki I, Mizuta T, Zhang H, Yoshimura T, Kawazoe S, Eguchi Y, Yasutake T, Hisatomi A, Sakai T and Yamamoto K, “Induction of multiple matrix metalloproteinase genes in human hepatocellular carcinoma by hepatocyte growth factor via a transcription factor Ets-1,” Hepatol. Res. 27, 288-300. The various MMP-luciferase plasmids were introduced into Huh7 hepatic cancer cells using lipofectamine, menatetrenone was added at various concentrations, and after 48 hours the cells were collected and luciferase activity measured to investigate the effects of menatetrenone on MMP-1, MMP-3 and MMP-7 gene promoter activity.

MMP-3 promoter = assay: as above; type: cell-based; conditions: Huh7 cells, 48 hours
Method: as §8

MMP-7 promoter = assay: as above; type: cell-based; conditions: Huh7 cells, 48 hours
Method: as §8

MMP-1 [19] = assay: gene expression with TPA induction, Western blot; type: cell-based; conditions: HepG2, 20 nM TPA then menatetrenone
Method: as §1

MMP-3 [20] = assay: gene expression with TPA induction, Western blot; type: cell-based; conditions: HepG2, 20 nM TPA then menatetrenone
Method: as §1

[21] = cited from earlier work
[22] = cited from earlier work; remark: listed apart in the source

CCCCCCCCCCCCCC(=O)O[C@@H]1[C@@H](C)[C@@]2(O)[C@@H](C=C(CO)C[C@]3(O)C(=O)C(C)=C[C@@H]23)[C@@H]2C(C)(C)[C@]12OC(C)=O [TPA, 12-O-tetradecanoylphorbol-13-acetate]
increased: mRNA expression of Ets-1 (Ets-1; 20 nM of TPA alone) | mRNA expression of MMP-1 (MMP-1 [1]; 20 nM of TPA alone) | mRNA expression of MMP-3 (MMP-3 [2]; 20 nM of TPA alone) | mRNA expression of MMP-7 (MMP-7 [3]; 20 nM of TPA alone) | mRNA expression of uPA ([4]; 20 nM of TPA alone)
not affected: mRNA expression of PAI (uPA inhibitor PAI) | mRNA expression of uPAR (uPA receptor uPAR)

CC(C)=CCC/C(C)=C/CC/C(C)=C/CC/C(C)=C/CC1=C(C)C(=O)c2ccccc2C1=O [menatetrenone, 2-methyl-3-tetraprenyl-1,4-naphthoquinone]
inhibited: protein expression of MMP-1 (MMP-1 [17]) | protein expression of MMP-3 (MMP-3 [18])
did not affect: binding activity of Tcf/Lef (Tcf/Lef)
dose-dependently inhibited: cell proliferation [5] | cell proliferation [6] | cell proliferation [7] | cell proliferation [8] | expression of mRNA of MMP-14 (MMP-14 (MT1-MMP)) | expression of mRNA of MMP-1 (MMP-1 [13]) | expression of mRNA of MMP-3 (MMP-3 [14]) | expression of mRNA of MMP-7 (MMP-7 [15]) | expression of the transcription factor Ets-1 [16] | binding activity of AP-1 (AP-1) | MMP-1 promoter activity (MMP-1 promoter) | MMP-3 promoter activity (MMP-3 promoter) | MMP-7 promoter activity (MMP-7 promoter) | TPA-induced mRNA expression of Ets-1 (Ets-1; 20 nM TPA then menatetrenone) | TPA-induced mRNA expression of MMP-1 (MMP-1 [1]; 20 nM TPA then menatetrenone) | TPA-induced mRNA expression of MMP-3 (MMP-3 [2]; 20 nM TPA then menatetrenone) | TPA-induced mRNA expression of MMP-7 (MMP-7 [3]; 20 nM TPA then menatetrenone) | TPA-induced mRNA expression of uPA ([4]; 20 nM TPA then menatetrenone) | TPA-induced expression of MMP-1 at the protein level (MMP-1 [19]) | TPA-induced expression of MMP-3 at the protein level (MMP-3 [20])
no change: p27 expression (p27; Hep3B cells)
slight increase: p21 expression (p21; Hep3B cells) | p16 expression (p16; Hep3B cells)
increases: p21 mRNA expression (p21; HepG2 cells, 48 hours) | p27 mRNA expression (p27; HepG2 cells, 48 hours)
easily decomposed by light: stability to light [22]
~50%: decrease of MMP-1 promoter activity (MMP-1 promoter) | decrease of MMP-7 promoter activity (MMP-7 promoter)
no changes: p21 expression (p21; Huh7 cells) | p27 expression (p27; Huh7 cells) | p16 expression (p16; Huh7 cells) | expression of GAPDH mRNA (GAPDH) | expression of β1 integrin mRNA (β1 integrin)
increased dose-dependently: proportion of G1-phase cells (HLE hepatic cancer cells) | proportion of G1-phase cells [9] | proportion of G1-phase cells [10] | proportion of G1-phase cells [11]
dissolves very little: solubility in water [21]
decreased: G2-phase cells (HLE hepatic cancer cells) | G2-phase cells [9] | G2-phase cells [10] | G2-phase cells [11]
dose-dependently inhibits: ability of cancer cells to invade Matrigel [12]

— patent US20060194883A1, “Mmp expression inhibitor” (EISAI CO., LTD, priority 2003, published 2006)
